Data taken from patent US4069035A, “1-(2-Carboxyaryl)-3-aryl-1,2,4-triazoles and use as herbicides” (E. I. Du Pont de Nemours and Company, priority 1976, dated 1978).

What was measured:
soybeans [1] = assay: postemergence plant growth test; assay type: in vivo; details: 2k/ha
From the text: (§1) The imidazole and triazole compounds of the invention are useful as plant growth modifiers when applied to plants. The compounds are applied to the immediate area where the plant is developing and growing, including preemergence and postemergence application.

wild oats [2] = assay: postemergence plant growth test; assay type: in vivo; details: 2k/ha
From the text: as §1

corn [3] = assay: postemergence plant growth test; assay type: in vivo; details: 2k/ha
From the text: as §1

nutsedge [4] = assay: postemergence plant growth test; assay type: in vivo; details: 2k/ha
From the text: as §1

cocklebur [5] = assay: postemergence plant growth test; assay type: in vivo; details: 2k/ha
From the text: as §1

sorghum = assay: postemergence plant growth test; assay type: in vivo; details: 2k/ha
From the text: as §1

bush beans = assay: postemergence plant growth test; assay type: in vivo; details: 2k/ha
From the text: as §1

wheat [6] = assay: postemergence plant growth test; assay type: in vivo; details: 2k/ha
From the text: as §1

rice [7] = assay: postemergence plant growth test; assay type: in vivo; details: 2k/ha
From the text: as §1

cassia [8] = assay: postemergence plant growth test; assay type: in vivo; details: 2k/ha
From the text: as §1

morning glory [9] = assay: postemergence plant growth test; assay type: in vivo; details: 2k/ha
From the text: as §1

soybeans [10] = assay: preemergence plant growth test; assay type: in vivo; details: 2k/ha
From the text: as §1

wild oats [11] = assay: preemergence plant growth test; assay type: in vivo; details: 2k/ha
From the text: as §1

corn [12] = assay: preemergence plant growth test; assay type: in vivo; details: 2k/ha
From the text: as §1

crabgrass = assay: preemergence plant growth test; assay type: in vivo; details: 2k/ha
From the text: as §1

nutsedge [13] = assay: preemergence plant growth test; assay type: in vivo; details: 2k/ha
From the text: as §1

cocklebur [14] = assay: preemergence plant growth test; assay type: in vivo; details: 2k/ha
From the text: as §1

wheat [15] = assay: preemergence plant growth test; assay type: in vivo; details: 2k/ha
From the text: as §1

rice [16] = assay: preemergence plant growth test; assay type: in vivo; details: 2k/ha
From the text: as §1

cassia [17] = assay: preemergence plant growth test; assay type: in vivo; details: 2k/ha
From the text: as §1

barnyard grass = assay: preemergence plant growth test; assay type: in vivo; details: 2k/ha
From the text: as §1

morning glory [18] = assay: preemergence plant growth test; assay type: in vivo; details: 2k/ha
From the text: as §1

[19] = pKa by titration against aqueous NaOH (half neutralization point), buffer range; assay type: physicochemical
Experimental: The selected acids listed in Table IX (65-84 mg samples, weighed accurately) were respectively dissolved in a mixture of dimethylsulfoxide (25 ml) and water (10-25 ml) and titrated against 0.09995N aqueous sodium hydroxide using an automatic titrimeter (Metrohm Potentiograph Model E 336). According to the general theory of buffer solutions (A. I. Vogel, "A Textbook of Quantitative Inorganic Analysis, Theory and Practice," Longmans, Green, London (1948)), the following relationship exists in a dilute solution (0.05-0.2M) of a weak acid to which small additions of acid or base are made
pH = pKa + log [Salt]/[Acid]
The pH of the solution is mainly determined by the pKa of the acid, and in general the buffering capacity (ability to withstand pH change upon addition of acid or base) is maintained within the range 1 acid:10 salt to 10 acid:1 salt, a hundred-fold variation of concentration, or a change of two pH units. The buffer ranges of each of the acids is shown in the third column of Table IX. The acids are useful as buffers in weakly acidic solutions.

O=C(O)c1ccccc1-n1cnc(-c2ccccc2)c1 [Example 1, 1-(2-carboxyphenyl)-4-phenylimidazole]
epinastic response (soybeans [1]): epinastic response
epinastic response (wild oats [2]): epinastic response
epinastic response (corn [3]): epinastic response
growth (nutsedge [4]): retarded
epinastic response (cocklebur [5]): epinastic response
epinastic response (sorghum): epinastic response
epinastic response (bush beans): epinastic response
epinastic response (wheat [6]): epinastic response
epinastic response (rice [7]): epinastic response
epinastic response (cassia [8]): epinastic response
epinastic response (morning glory [9]): epinastic response
emergence (soybeans [10]; soybean): inhibited
epinastic response (soybeans [10]; soybeans): very strong hormonal effect (epinastic response)
emergence (wild oats [11]): inhibited
epinastic response (corn [12]): very strong hormonal effect (epinastic response)
emergence (crabgrass): inhibited
emergence (nutsedge [13]): inhibited
epinastic response (cocklebur [14]): very strong hormonal effect (epinastic response)
epinastic response (wheat [15]): very strong hormonal effect (epinastic response)
epinastic response (rice [16]): very strong hormonal effect (epinastic response)
epinastic response (cassia [17]): very strong hormonal effect (epinastic response)
epinastic response (barnyard grass): very strong hormonal effect (epinastic response)
epinastic response (morning glory [18]): very strong hormonal effect (epinastic response)
pKa ([19]; dimethylsulfoxide/water, 0.09995N NaOH, half neutralization point): 4.91
Buffer Range ([19]; range 1 acid:10 salt to 10 acid:1 salt): 3.9 - 5.9 pH Units
